{"source": "paper PMC3637054", "about": "“Comparison of activity indexes for recognizing enzyme mutants of higher activity with uricase as model” (Chemistry Central Journal, 2013)", "test_system": "T1, uricase of Asahi-Kasei", "T1 construct": "gene urate oxidase; commercial diagnostic enzyme of Asahi-Kasei", "experiment": "UV absorbance at […] nm, initial rates, Lineweaver-Burk", "type": "biochemical", "settings": "borate buffer, 25 °C"}
{"compound": "O=c1[nH]c(=O)c2[nH]c(=O)[nH]c2[nH]1", "note": "[uric acid]", "values": [{"measurement": "Km", "result": "~30", "unit": "µM"}]}
